According to patent publication US12371428B2 (Exelixis, Inc., priority 2019, dated 2025):
Like-named read-outs stand apart in the source and are kept apart here.

Columns and labels:
[1] = target: Human KDR (residues 790-1356) (Homo sapiens (Human), UniProt P35968); test: Human KDR kinase assay, HTRF KinEase (Example B-2); type: biochemical
How it was run: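 Ten compound concentrations (3% DMSO final) were pre-plated, then KDR (790-1356) with biotinylated peptide in Mg/Mn/DTT buffer was added; ATP at Km (4.0 μM) started a 40 min room-temperature reaction. Detection used Eu-TK antibody and SA-XL665 in EDTA buffer; activity normalized to DMSO and reference inhibitor, IC50 by logistic fit.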

[2] = target: Human MET (residues 956-1390) (Homo sapiens (Human), UniProt P08581); test: Human Met kinase assay, HTRF KinEase (Example D-2); type: biochemical; settings: read-out: c-Met IC50
Chain of Human MET (residues 956-1390) (P08581 956-1390): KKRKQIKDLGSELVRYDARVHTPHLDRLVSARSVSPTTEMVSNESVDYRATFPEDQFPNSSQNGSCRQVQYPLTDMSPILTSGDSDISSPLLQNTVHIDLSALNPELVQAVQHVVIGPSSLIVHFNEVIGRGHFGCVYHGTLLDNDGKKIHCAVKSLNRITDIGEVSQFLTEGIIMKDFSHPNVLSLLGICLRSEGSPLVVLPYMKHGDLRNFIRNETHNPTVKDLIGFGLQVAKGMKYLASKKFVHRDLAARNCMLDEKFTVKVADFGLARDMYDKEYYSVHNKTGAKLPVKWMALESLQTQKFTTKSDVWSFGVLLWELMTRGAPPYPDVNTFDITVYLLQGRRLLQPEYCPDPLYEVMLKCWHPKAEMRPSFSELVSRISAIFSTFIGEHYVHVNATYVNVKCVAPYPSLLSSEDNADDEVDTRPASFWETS
How it was run: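 HTRF KinEase assay on MET residues 956-1390 (0.1 ng/well) in buffer with 5 mM MgCl2, 1 mM DTT and 1 mM MnCl2, with biotinylated peptide substrate, ATP at Km, 10 compound concentrations and 3% DMSO final, run 40 min at room temperature. The […] signal was normalized to DMSO and to 1 μM reference compound, and IC50 came from a 4-parameter logistic fit.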

[3] = target: KDR (phospho-KDR, VEGF165-stimulated HUVEC cells) (Homo sapiens (Human), UniProt P35968); test: KDR autophosphorylation ELISA in HUVEC cells (Example G); type: cell-based; settings: cellular activity; KDR autophosphorylation ELISA in HUVEC cells
Chain of KDR (phospho-KDR, VEGF165-stimulated HUVEC cells) (P35968 20-1356): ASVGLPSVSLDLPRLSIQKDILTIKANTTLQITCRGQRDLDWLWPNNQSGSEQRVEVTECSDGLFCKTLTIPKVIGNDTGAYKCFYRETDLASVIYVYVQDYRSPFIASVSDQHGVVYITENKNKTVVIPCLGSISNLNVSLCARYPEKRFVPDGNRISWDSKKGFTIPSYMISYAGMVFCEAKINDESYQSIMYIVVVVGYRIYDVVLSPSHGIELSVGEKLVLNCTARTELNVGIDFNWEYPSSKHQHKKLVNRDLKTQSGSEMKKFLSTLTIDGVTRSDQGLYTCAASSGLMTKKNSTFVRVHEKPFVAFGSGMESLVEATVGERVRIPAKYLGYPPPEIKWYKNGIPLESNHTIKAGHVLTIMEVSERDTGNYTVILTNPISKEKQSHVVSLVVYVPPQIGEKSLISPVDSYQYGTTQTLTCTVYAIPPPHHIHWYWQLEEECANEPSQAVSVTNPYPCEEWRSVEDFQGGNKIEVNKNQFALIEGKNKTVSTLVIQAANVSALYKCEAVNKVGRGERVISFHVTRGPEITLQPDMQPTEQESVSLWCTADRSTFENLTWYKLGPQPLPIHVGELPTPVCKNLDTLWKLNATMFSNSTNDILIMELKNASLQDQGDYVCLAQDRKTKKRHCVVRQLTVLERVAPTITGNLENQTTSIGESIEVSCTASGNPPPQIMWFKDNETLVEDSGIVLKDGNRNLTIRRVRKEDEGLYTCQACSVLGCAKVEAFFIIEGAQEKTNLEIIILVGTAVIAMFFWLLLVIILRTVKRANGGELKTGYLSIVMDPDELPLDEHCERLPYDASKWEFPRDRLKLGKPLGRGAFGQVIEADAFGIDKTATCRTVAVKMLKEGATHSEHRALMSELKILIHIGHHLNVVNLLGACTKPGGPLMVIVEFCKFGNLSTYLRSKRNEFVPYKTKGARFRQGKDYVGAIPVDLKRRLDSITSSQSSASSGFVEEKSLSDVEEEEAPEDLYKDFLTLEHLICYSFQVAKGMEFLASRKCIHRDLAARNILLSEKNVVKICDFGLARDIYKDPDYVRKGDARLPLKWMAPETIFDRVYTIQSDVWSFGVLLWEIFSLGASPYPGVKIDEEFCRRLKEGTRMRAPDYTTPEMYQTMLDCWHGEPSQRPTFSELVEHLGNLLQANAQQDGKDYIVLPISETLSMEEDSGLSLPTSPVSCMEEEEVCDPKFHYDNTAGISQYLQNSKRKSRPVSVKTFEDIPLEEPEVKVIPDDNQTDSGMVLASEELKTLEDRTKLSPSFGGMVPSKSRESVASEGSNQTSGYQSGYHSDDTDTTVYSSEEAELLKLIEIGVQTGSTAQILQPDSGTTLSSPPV
How it was run: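 Read-out: phospho-KDR in cell lysates by DuoSet IC ELISA, normalised between VEGF-stimulated DMSO wells (100%) and unstimulated wells (0%). Human endothelial cells were starved overnight in serum-free medium, exposed to compound for 1 h, and then pulsed with 100 ng/mL VEGF165 for 5 min.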

[4] = target: Mer (phospho-Mer, MERTK-transfected 293A cells) (Homo sapiens (Human), UniProt Q12866); test: Mer autophosphorylation ELISA in transient transfected 293A cells (Example H); type: cell-based; settings: cellular activity; Mer autophosphorylation ELISA in transient transfected 293A cells
Chain of Mer (phospho-Mer, MERTK-transfected 293A cells) (Q12866 21-999): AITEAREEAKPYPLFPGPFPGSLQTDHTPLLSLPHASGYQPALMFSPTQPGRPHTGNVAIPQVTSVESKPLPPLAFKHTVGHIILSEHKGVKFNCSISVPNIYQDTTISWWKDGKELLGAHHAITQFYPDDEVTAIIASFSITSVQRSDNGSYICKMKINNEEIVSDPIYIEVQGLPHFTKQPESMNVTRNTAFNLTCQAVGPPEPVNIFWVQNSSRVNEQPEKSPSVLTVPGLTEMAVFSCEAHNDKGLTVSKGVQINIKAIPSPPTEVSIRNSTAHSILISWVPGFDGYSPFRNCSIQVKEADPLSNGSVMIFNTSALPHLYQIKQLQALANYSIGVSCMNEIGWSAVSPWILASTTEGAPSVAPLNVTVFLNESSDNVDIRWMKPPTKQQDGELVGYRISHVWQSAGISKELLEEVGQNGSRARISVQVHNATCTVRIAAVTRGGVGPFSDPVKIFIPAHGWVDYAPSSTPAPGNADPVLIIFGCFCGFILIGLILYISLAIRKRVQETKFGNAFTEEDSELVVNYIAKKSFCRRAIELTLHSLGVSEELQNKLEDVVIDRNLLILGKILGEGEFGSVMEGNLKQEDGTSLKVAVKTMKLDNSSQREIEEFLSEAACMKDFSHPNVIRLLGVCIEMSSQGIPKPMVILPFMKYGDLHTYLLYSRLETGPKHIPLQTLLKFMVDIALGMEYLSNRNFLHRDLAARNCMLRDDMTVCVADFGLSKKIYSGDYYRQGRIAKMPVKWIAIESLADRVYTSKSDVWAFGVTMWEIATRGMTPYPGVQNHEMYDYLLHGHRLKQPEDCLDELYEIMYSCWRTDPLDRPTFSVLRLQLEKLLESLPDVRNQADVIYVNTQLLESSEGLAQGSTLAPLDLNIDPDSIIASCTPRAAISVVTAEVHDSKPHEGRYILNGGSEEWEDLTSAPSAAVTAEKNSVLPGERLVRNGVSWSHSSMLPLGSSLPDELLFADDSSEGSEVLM
How it was run: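 MERTK-transfected 293A; 8-pt dose, 1 h, serum-free, 0.3% DMSO. Cold lysis with orthovanadate and protease/phosphatase inhibitors. Phospho-Mer by DuoSet IC ELISA vs phospho-Mer standard. IC50: 4-PL fit; DMSO = 100%, reference inhibitor = 0%.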

Chain of Human KDR (residues 790-1356) (P35968 790-1356): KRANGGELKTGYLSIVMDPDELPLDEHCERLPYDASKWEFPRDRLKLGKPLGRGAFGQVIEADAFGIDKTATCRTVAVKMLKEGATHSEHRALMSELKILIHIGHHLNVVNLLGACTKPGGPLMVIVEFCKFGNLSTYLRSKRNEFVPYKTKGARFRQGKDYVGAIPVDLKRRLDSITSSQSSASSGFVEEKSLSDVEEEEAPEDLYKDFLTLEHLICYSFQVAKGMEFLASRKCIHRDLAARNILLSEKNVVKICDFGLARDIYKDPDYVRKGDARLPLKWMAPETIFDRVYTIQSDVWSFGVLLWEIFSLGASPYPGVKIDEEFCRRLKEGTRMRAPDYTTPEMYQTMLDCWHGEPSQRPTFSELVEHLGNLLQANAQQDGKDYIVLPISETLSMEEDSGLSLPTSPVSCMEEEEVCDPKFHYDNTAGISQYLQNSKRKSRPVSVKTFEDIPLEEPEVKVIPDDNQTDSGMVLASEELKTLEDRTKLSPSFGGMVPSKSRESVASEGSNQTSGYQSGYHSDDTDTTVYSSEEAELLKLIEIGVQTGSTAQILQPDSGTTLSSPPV

Q: Which IC50 ([1]; protocol of Example B-2) does the source give for `COc1cnc2c(Oc3ccc(NC(=O)c4cc(C)nn(-c5ccc(F)cc5)c4=O)cc3F)ccnc2c1` [Compound 521, N-[3-fluoro-4-[(7-methoxy-1,5-naphthyridin-4-yl)oxy]phenyl]-2-(4-fluorophenyl)-6-methyl-3-oxopyridazine-4-carboxamide] here?
A: > 300 nM

Q: And the IC50 ([2]; protocol of Example D-2)?
A: < 100 nM

Q: And the IC50 [3]?
A: > 300 nM

Q: And the IC50 [4]?
A: > 300 nM

Q: Which IC50 ([1]; protocol of Example B-2) does the source give for `COc1nc2c(Oc3ccc(NC(=O)c4cnc(C)c(-c5ccc(F)cc5)c4O)cc3F)ccnc2cc1C` [Compound 458, N-[3-fluoro-4-[(6-methoxy-7-methyl-1,5-naphthyridin-4-yl)oxy]phenyl]-5-(4-fluorophenyl)-4-hydroxy-6-methylpyridine-3-carboxamide] here?
A: 100 to 300 nM

Q: What about the IC50 ([2]; protocol of Example D-2) of the same molecule?
A: 100 to 300 nM

Q: And the IC50 [3]?
A: < 100 nM

Q: And the IC50 [4]?
A: < 100 nM

Q: What does the source list for `COc1cc2nccc(Oc3ccc(NC(=O)c4nn(C)c(C)c(-c5ccc(F)cc5C)c4=O)cc3)c2nc1OC` [Compound 517, N-[4-[(6,7-dimethoxy-1,5-naphthyridin-4-yl)oxy]phenyl]-5-(4-fluoro-2-methylphenyl)-1,6-dimethyl-4-oxopyridazine-3-carboxamide]?
A: IC50 ([1]; protocol of Example B-2): < 100 nM; IC50 ([2]; protocol of Example D-2): < 100 nM; IC50 [3]: < 100 nM; IC50 [4]: < 100 nM

Q: What does the source list for `COCCOc1cnc2c(Oc3ccc(NC(=O)c4ccc(C)n(-c5ccc(F)cc5)c4=O)cc3F)ccnc2c1` [Compound 552, N-[3-Fluoro-4-[[7-(2-methoxyethoxy)-1,5-naphthyridin-4-yl]oxy]phenyl]-1-(4-fluorophenyl)-6-methyl-2-oxopyridine-3-carboxamide]?
A: IC50 ([1]; protocol of Example B-2): < 100 nM; IC50 ([2]; protocol of Example D-2): < 100 nM; IC50 [3]: < 100 nM; IC50 [4]: < 100 nM

Q: Which results are given for `CCn1cc(C(=O)Nc2ccc(Oc3ccnc4cc(OC)c(OC)nc34)c(F)c2)c(=O)c(-c2ccc(F)cc2)c1CF` [Compound 562, N-[4-[(6,7-Dimethoxy-1,5-naphthyridin-4-yl)oxy]-3-fluorophenyl]-1-ethyl-6-(fluoromethyl)-5-(4-fluorophenyl)-4-oxopyridine-3-carboxamide]?
A: IC50 ([1]; protocol of Example B-2): > 300 nM; IC50 ([2]; protocol of Example D-2): 100 to 300 nM; IC50 [3]: 100 to 300 nM; IC50 [4]: < 100 nM

Q: Which IC50 ([1]; protocol of Example B-2) does the source give for `COc1cc2nccc(Oc3ccc(NC(=O)c4cn(C)cc(-c5ccc(F)cc5C)c4=O)cc3F)c2nc1OC` [Compound 503, N-[4-[(6,7-dimethoxy-1,5-naphthyridin-4-yl)oxy]-3-fluorophenyl]-5-(4-fluoro-2-methylphenyl)-1-methyl-4-oxopyridine-3-carboxamide] here?
A: < 100 nM

Q: And the IC50 ([2]; protocol of Example D-2)?
A: < 100 nM

Q: And the IC50 [3]?
A: < 100 nM

Q: And the IC50 [4]?
A: < 100 nM

Q: `COc1cnc2c(Oc3ccc(NC(=O)c4nn(C)c(C)c(-c5ccc(F)cc5C)c4=O)cc3F)ccnc2c1` [Compound 513, N-[3-fluoro-4-[(7-methoxy-1,5-naphthyridin-4-yl)oxy]phenyl]-5-(4-fluoro-2-methylphenyl)-1,6-dimethyl-4-oxopyridazine-3-carboxamide] was tested. Which IC50 ([1]; protocol of Example B-2) did it give?
A: < 100 nM

Q: What about the IC50 ([2]; protocol of Example D-2) of the same molecule?
A: < 100 nM

Q: What about the IC50 [3] of the same molecule?
A: < 100 nM

Q: What about the IC50 [4] of the same molecule?
A: < 100 nM

Q: `COc1cc2nccc(Oc3ccc(NC(=O)c4cc(C)nn(-c5ccc(F)cc5)c4=O)cc3F)c2nc1OC` [Compound 519, N-[4-[(6,7-dimethoxy-1,5-naphthyridin-4-yl)oxy]-3-fluorophenyl]-2-(4-fluorophenyl)-6-methyl-3-oxopyridazine-4-carboxamide] was tested. Which IC50 ([1]; protocol of Example B-2) did it give?
A: > 300 nM

Q: And the IC50 ([2]; protocol of Example D-2)?
A: 100 to 300 nM

Q: What about the IC50 [3] of the same molecule?
A: < 100 nM

Q: And the IC50 [4]?
A: < 100 nM

Q: Which results are given for `COc1cc2nccc(Oc3ccc(NC(=O)c4c(C)n(C)c(C)c(-c5ccc(F)cc5)c4=O)cc3)c2nc1OC` [Compound 523, N-[4-[(6,7-dimethoxy-1,5-naphthyridin-4-yl)oxy]phenyl]-5-(4-fluorophenyl)-1,2,6-trimethyl-4-oxopyridine-3-carboxamide]?
A: IC50 ([1]; protocol of Example B-2): > 300 nM; IC50 ([2]; protocol of Example D-2): < 100 nM; IC50 [3]: > 300 nM; IC50 [4]: < 100 nM

Q: What does the source list for `CCn1cc(C(=O)Nc2ccc(Oc3ccnc4cc(OC)cnc34)c(F)c2)c(=O)c(-c2ccc(F)cc2)c1CF` [Compound 559, 1-Ethyl-N-[3-fluoro-4-[(7-methoxy-1,5-naphthyridin-4-yl)oxy]phenyl]-6-(fluoromethyl)-5-(4-fluorophenyl)-4-oxopyridine-3-carboxamide]?
A: IC50 ([1]; protocol of Example B-2): > 300 nM; IC50 ([2]; protocol of Example D-2): < 100 nM; IC50 [3]: > 300 nM; IC50 [4]: < 100 nM

Q: `Cc1ccc(C(=O)Nc2ccc(Oc3ccnc4cc(O)cnc34)c(F)c2)c(=O)n1-c1ccc(F)cc1` [Compound 551, N-[3-Fluoro-4-[(7-hydroxy-1,5-naphthyridin-4-yl)oxy]phenyl]-1-(4-fluorophenyl)-6-methyl-2-oxopyridine-3-carboxamide] was tested. Which IC50 ([1]; protocol of Example B-2) did it give?
A: 100 to 300 nM

Q: And the IC50 ([2]; protocol of Example D-2)?
A: < 100 nM

Q: And the IC50 [3]?
A: < 100 nM

Q: And the IC50 [4]?
A: < 100 nM

Q: Which IC50 ([1]; protocol of Example B-2) does the source give for `C=C(C)c1cnc2c(Oc3ccc(NC(=O)c4c(C)cc(C)n(-c5ccc(F)cc5)c4=O)cc3F)ccnc2c1` [Compound 457, 1-(4-fluorophenyl)-N-[3-fluoro-4-[(7-prop-1-en-2-yl-1,5-naphthyridin-4-yl)oxy]phenyl]-4,6-dimethyl-2-oxopyridine-3-carboxamide] here?
A: < 100 nM

Q: And the IC50 ([2]; protocol of Example D-2)?
A: < 100 nM

Q: What about the IC50 [3] of the same molecule?
A: < 100 nM

Q: What about the IC50 [4] of the same molecule?
A: < 100 nM

Q: `COc1cc2c(Oc3ccc(NC(=O)c4ccc(C)n(-c5ccc(F)cc5)c4=O)cc3F)ccnc2cn1` [Compound 494, N-[3-fluoro-4-[(6-methoxy-1,7-naphthyridin-4-yl)oxy]phenyl]-1-(4-fluorophenyl)-6-methyl-2-oxopyridine-3-carboxamide] was tested. Which IC50 ([1]; protocol of Example B-2) did it give?
A: 100 to 300 nM

Q: And the IC50 ([2]; protocol of Example D-2)?
A: < 100 nM

Q: What about the IC50 [3] of the same molecule?
A: < 100 nM

Q: What about the IC50 [4] of the same molecule?
A: < 100 nM

Q: How did the IC50 ([1]; protocol of Example B-2) turn out when `Cc1nc(C)c(-c2ccc(F)cc2)c(O)c1C(=O)Nc1ccc(Oc2ccnc3cc(O)cnc23)c(F)c1` [Compound 554, N-[3-Fluoro-4-[(7-hydroxy-1,5-naphthyridin-4-yl)oxy]phenyl]-5-(4-fluorophenyl)-4-hydroxy-2,6-dimethylpyridine-3-carboxamide] was run?
A: < 100 nM

Q: What about the IC50 ([2]; protocol of Example D-2) of the same molecule?
A: < 100 nM

Q: What about the IC50 [3] of the same molecule?
A: < 100 nM

Q: What about the IC50 [4] of the same molecule?
A: < 100 nM

Q: With `Cc1cc(F)ccc1-c1c(C)nc(C)c(C(=O)Nc2ccc(Oc3ccnc4cccnc34)c(F)c2)c1O` [Compound 505, 5-(4-fluoro-2-methylphenyl)-N-[3-fluoro-4-(1,5-naphthyridin-4-yloxy)phenyl]-4-hydroxy-2,6-dimethylpyridine-3-carboxamide] as the molecule, how does the IC50 ([1]; protocol of Example B-2) read?
A: > 300 nM

Q: What about the IC50 ([2]; protocol of Example D-2) of the same molecule?
A: < 100 nM

Q: What about the IC50 [3] of the same molecule?
A: < 100 nM

Q: And the IC50 [4]?
A: 100 to 300 nM

Q: How did the IC50 ([1]; protocol of Example B-2) turn out when `COc1cc2nccc(Oc3ccc(NC(=O)c4cn(C)c(CF)c(-c5ccc(F)cc5C)c4=O)cc3F)c2nc1OC` [Compound 556, N-[4-[(6,7-Dimethoxy-1,5-naphthyridin-4-yl)oxy]-3-fluorophenyl]-6-(fluoromethyl)-5-(4-fluoro-2-methylphenyl)-1-methyl-4-oxopyridine-3-carboxamide] was run?
A: > 300 nM

Q: What about the IC50 ([2]; protocol of Example D-2) of the same molecule?
A: 100 to 300 nM

Q: And the IC50 [3]?
A: < 100 nM

Q: What about the IC50 [4] of the same molecule?
A: < 100 nM

Q: Which IC50 ([1]; protocol of Example B-2) does the source give for `COCc1nc(C)c(-c2ccc(F)cc2)c(O)c1C(=O)Nc1ccc(Oc2ccnc3ccc(OC)cc23)c(F)c1` [Compound 525, N-[3-fluoro-4-(6-methoxyquinolin-4-yl)oxyphenyl]-5-(4-fluorophenyl)-4-hydroxy-2-(methoxymethyl)-6-methylpyridine-3-carboxamide] here?
A: > 300 nM

Q: And the IC50 ([2]; protocol of Example D-2)?
A: 100 to 300 nM

Q: What about the IC50 [3] of the same molecule?
A: < 100 nM

Q: What about the IC50 [4] of the same molecule?
A: < 100 nM

Q: For `COc1cnc2c(Oc3ccc(NC(=O)c4cn(C)c(C)c(-c5ccc(F)cc5C)c4=O)cc3)ccnc2c1` [Compound 187, 5-(4-Fluoro-2-methylphenyl)-N-[4-[(7-methoxy-1,5-naphthyridin-4-yl)oxy]phenyl]-1,6-dimethyl-4-oxopyridine-3-carboxamide], which IC50 ([1]; protocol of Example B-2 (other compounds)) is on record?
A: > 300 nM

Q: And the IC50 ([2]; protocol of Example D-2 (other compounds))?
A: < 100 nM

Q: What about the IC50 [3] of the same molecule?
A: > 300 nM

Q: What about the IC50 [4] of the same molecule?
A: < 100 nM

Q: Which IC50 ([1]; protocol of Example B-2) does the source give for `CCc1ncc(C(=O)Nc2ccc(Oc3ccnc4cc(OC)c(OC)nc34)c(F)c2)c(O)c1-c1ccc(F)cc1` [Compound 504, N-[4-[(6,7-dimethoxy-1,5-naphthyridin-4-yl)oxy]-3-fluorophenyl]-6-ethyl-5-(4-fluorophenyl)-4-hydroxypyridine-3-carboxamide] here?
A: < 100 nM

Q: What about the IC50 ([2]; protocol of Example D-2) of the same molecule?
A: < 100 nM

Q: And the IC50 [3]?
A: < 100 nM

Q: What about the IC50 [4] of the same molecule?
A: < 100 nM

Q: For `COc1cnc2c(Oc3ccc(NC(=O)c4ccnn(-c5ccc(F)cc5C)c4=O)cc3)ccnc2c1` [Compound 530, 2-(4-fluoro-2-methylphenyl)-N-[4-[(7-methoxy-1,5-naphthyridin-4-yl)oxy]phenyl]-3-oxopyridazine-4-carboxamide], which IC50 ([1]; protocol of Example B-2) is on record?
A: > 300 nM

Q: What about the IC50 ([2]; protocol of Example D-2) of the same molecule?
A: 100 to 300 nM

Q: And the IC50 [3]?
A: < 100 nM

Q: And the IC50 [4]?
A: < 100 nM
